This note sets out measurements from patent US20190183939A1, “CELL THERAPY USING MIDBRAIN-TYPE NEURAL STEM CELLS TREATED WITH VITAMIN C” (INDUSTRY-UNIVERSITY COOPERATION FOUNDATION HANYANG …, priority 2017, published 2019).

Assay [1] deals with global 5hmC/5mC and H3K27m3/H3K9m3 levels in VM-NSCs. Put plainly: Global epigenetic code determination (dot blot, western blot, immunocytochemistry). It counts as cell-based, rat. The method, then: Cultured cells and cryosectioned brain slices were fixed with 4% paraformaldehyde (PFA), and blocked for 40 minutes in blocking solution (Blocking solution: 1% BSA+0.3% Triton X-100). For 5hmC and 5mC staining, the fixed cells were incubated with 2 N HCl for 20 minutes before the blocking reaction. The samples were incubated overnight at 4° C. in the blocking solution containing the primary antibodies listed in Supplemental Table 1. Secondary antibodies tagged with Alexa 488 (1:200, Invitrogen, Carlsbad, Calif.) and Cy3 (1:200, Jackson Immunoresearch Laboratories, West Grove, Pa.) were applied. Stained samples were mounted in Vectashield medium containing 40,6-diamidino-2-phenylindole (DAPI; Vector Laboratories, West Grove, Pa.) and analysed under an epifluorescence (Leica, Wetzlar, Germany) or confocal microscope (Leica TSP SP5).
DNA dot blot analysis for 5hmC/5mC was performed as described in the following reference. [He, X. B., Kim, M., Kim, S. Y., Yi, S. H., Rhee, Y. H., Kim, T., Lee, E. H., Park, C. H., Dixit, S., Harrison, F. E., et al. (2015). Vitamin C facilitates dopamine neuron differentiation in fetal midbrain through TET1- and JMJD3-dependent epigenetic control manner. Stem Cells 33, 1320-1332]. Briefly, genomic DNA was extracted and quantified. Genomic DNA (80 ng) was spotted on nitrocellulose membranes, air dried, and exposed in UV for 20 minutes. After blocking with 5% bovine serum albumin (BSA)/Tris-buffered saline-Tween 20 at room temperature for 2 hours, the membrane was incubated in anti-5hmC (Active Motif, Carlsbad, Calif.) and anti-5mC (Abcam, Cambridge, UK) antibodies at 4° C. overnight. Western-blots for determining global histone modification changes were performed as described in the following reference. [Rumbaugh, G., and Miller, C. A. (2011). Epigenetic changes in the brain: measuring global histone modifications. Methods Mol Biol 670, 263-274]. […] Positive bands were detected and captured by ChemiDoc (Bio-Rad, Hercules, Calif.), and the intensities of the bands were quantified using ImageJ software (http://imagej.nih.gov/ij).

Another assay deals with JMJD3. Put plainly: Jmjd3 enzyme activity in nuclear fraction. Type of assay: biochemical, rat. Particulars: VC 200 μM, 4 days of proliferation. The method, then:
TET and JMJD3 activities were measured using Epigenase™ 5mC hydroxylase TET Activity/Inhibition Assay Kit and Epigenase™ JMJD3/UTX Demethylase Activity/Inhibition Assay Kit (Epigentek, Farmingdale, N.Y.), respectively. Briefly, cells from two 10 cm-dishes were harvested after 4 days of proliferation with or without VC (200 μM) treatment. Nuclear fractions were obtained from the cells using the EpiQuik nuclear extraction kit (Epigentek), and subjected to enzyme activity analyses.

Assay [2] deals with GAD67, TPH2 and GFAP promoters. Put plainly: DIP-qPCR and ChIP-qPCR on GAD67, TPH2 and GFAP promoters. Type of assay: cell-based, rat. Particulars: VC administration to proliferating VM-NSCs. From the text:
Foxa2 and Nurr1 binding sites were identified using the Jaspar database (http://jaspar.genereg.net/) using an 80% score threshold. Predicted Foxa2 and Nurr1 binding sites were coupled with phylogenetic footprinting to eliminate spurious predictions with specified position weight matrix (PWM) settings, as described in the following reference. [Sandelin, A., and Wasserman, W. W. (2004). Constrained binding site diversity within families of transcription factors enhances pattern discovery bioinformatics. Journal of molecular biology 338, 207-215] (Table 2). ChIP and DIP assays were carried out as described in the following reference. [Prolonged membrane depolarization enhances midbrain dopamine neuron differentiation via epigenetic histone modifications. Stem Cells 29, 1861-1873]. Briefly, chromatin or genomic DNA was sheared to an average of 200-500 bp in length using a sonication Bioruptor (BMS, Seoul, Korea) and immunoprecipitated using the antibodies listed in Table 1. Immunoprecipitated DNA fragments were collected using magnetic beads (Invitrogen), purified, and subjected to real-time PCR using the primers listed in Table 3. The comparative cycle threshold method was used to quantify the results. Data were normalized to the input DNA.
Background: Real-time PCR tracks product formation cycle by cycle.

As to `O=C1O[C@H]([C@@H](O)CO)C(O)=C1O` [VC, L-ascorbic acid], in assay [1] (D0), the “global 5mC levels” value is “significant decrease”; the “global levels of H3K27m3 and H3K9m3” value is listed as “reduced”. Besides, the “global 5hmC levels” value in assay [1] (D0, immunoblotting and immunocytochemical analyses) was “greatly increased”. In addition, in the assay with JMJD3, the “Jmjd enzyme activity in nuclear fractions” value was “increase”. In addition, in assay [2], the “epigenetic codes on TPH2 and GAD67 genes” value was “did not affect”.
